The results in this text go back to ChEMBL document CHEMBL1201862, “PubChem BioAssay data set” (2004).

Each structure is given as a SMILES string. Counter-ions that a name gives are not always drawn.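 Cells were grown in 96-well plates and exposed to each compound for 48 hours at five concentrations; endpoints were interpolated linearly between bracketing concentrations, or set to the highest concentration if not reached. The concentration for 50% growth inhibition is given as GI50.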 The source made the active and inactive calls. No stated cut-off is given here; in the data, active = GI50 up to about 1.1 µM and inactive = higher.

Test systems include HT-29; SK-MEL-2; ACHN; M14; SK-MEL-5; OVCAR-4; SF-295; NCI/ADR-RES; HOP-62; 786-0; HCT-15; SK-MEL-28; SNB-75; HL-60; HOP-92; OVCAR-3; UACC-257; SF-539; K562; Malme-3M.
Common to all, as to assay: DTP human tumour cell line panel, 48 h

One may read the GI50 as the concentration giving 50% growth inhibition.

Turning to `COc1cccc2c(Nc3ccc(S(=O)(=O)NC(C)=O)cc3)c3ccc([N+](=O)[O-])cc3nc12`, the GI50 in the experiment on HT-29 is 13.8 µM (inactive); in the experiment with SK-MEL-2 it was 49.9 µM (inactive); in the experiment on ACHN it was 26.2 µM (inactive); in the experiment on M14, 53.1 µM (inactive); in the experiment with SK-MEL-5, 22.7 µM (inactive); with OVCAR-4, 97.7 µM (inactive). The GI50 with SF-295 was > 88.3 µM (inactive); with NCI/ADR-RES, > 57.1 µM (inactive); with HOP-62, > 78.2 µM (inactive); with 786-0, 33.3 µM (inactive); in the experiment on HCT-15, 47 µM; in the experiment on SK-MEL-28, > 48.4 µM (inactive). Besides, the GI50 was 8.28 µM (inactive) in the experiment with SNB-75; 36 µM (inactive) in the experiment on HL-60; 26.2 µM (inactive) with HOP-92; 32.5 µM (inactive) with OVCAR-3; 25.9 µM (inactive) in the experiment on UACC-257; 60.5 µM (inactive) with SF-539. The GI50 in the experiment with K562 is 22 µM (inactive); in the experiment on Malme-3M it was 33.9 µM (inactive).

On to `CC(=O)O/C(=C(/C#N)C(=O)O)C1C(C(=O)O)C(c2ccccc2[N+](=O)[O-])C=C(c2ccco2)N1c1ccncc1` (stereo not given), for which the GI50 with HT-29 is 1.61 µM (inactive); in the experiment on SK-MEL-2, 9.25 µM (inactive); in the experiment with ACHN it was 2.17 µM (inactive); with M14, 2.87 µM (inactive); in the experiment with SK-MEL-5 it was 2.94 µM (inactive); in the experiment with OVCAR-4 it was 14.3 µM (inactive). In addition, the GI50 with SF-295 is 7.67 µM (inactive); in the experiment on NCI/ADR-RES it was 8.57 µM (inactive); in the experiment on HOP-62 it was 7.82 µM (inactive); in the experiment with 786-0, 2.82 µM (inactive); with HCT-15, 1.71 µM; in the experiment with SK-MEL-28 it was 10.4 µM (inactive). Besides, the GI50 in the experiment on SNB-75 is 6.38 µM (inactive); with HL-60, 2.75 µM (inactive); with HOP-92 it was 16 µM (inactive); with OVCAR-3 it was 2.94 µM (inactive); with UACC-257, 3.9 µM (inactive); with SF-539, 1.95 µM (inactive). Also, the GI50 with K562 is 2.31 µM (inactive); in the experiment with Malme-3M, 8.43 µM (inactive).

As to `COc1ccc(CNc2nc(NC3CCCCC3)nc(NC3CCCCC3)n2)cc1`, the GI50 was 2.61 µM (inactive) with HT-29; 11.4 µM (inactive) in the experiment on SK-MEL-2; 5.35 µM (inactive) in the experiment with ACHN; 4.42 µM (inactive) with M14; 3.56 µM (inactive) in the experiment with SK-MEL-5; 4.02 µM (inactive) in the experiment with OVCAR-4. Besides, the GI50 in the experiment on SF-295 was 9.66 µM (inactive); with NCI/ADR-RES it was 4.24 µM (inactive); in the experiment with HOP-62 it was 8.18 µM (inactive); in the experiment on 786-0 it was 5.71 µM (inactive); in the experiment with HCT-15 it was 2.13 µM; with SK-MEL-28, 20.6 µM (inactive). The GI50 in the experiment on SNB-75 was 8.81 µM (inactive); in the experiment with HL-60 it was 4.88 µM (inactive); in the experiment with HOP-92, 8.75 µM (inactive); in the experiment on OVCAR-3, 11.3 µM (inactive); in the experiment on UACC-257 it was 13.9 µM (inactive); with SF-539, 8.28 µM (inactive). The GI50 in the experiment with K562 is 5.08 µM (inactive); in the experiment with Malme-3M, 9.25 µM (inactive).

As to `COC(=O)C1=C(C)NC2(C)OC(C)(O)C(C(C)=O)C12C(C)=O` (stereo not given), the GI50 in the experiment on HT-29 is 81.3 µM (inactive); in the experiment with SK-MEL-2, 21.4 µM (inactive); in the experiment on ACHN, 70.6 µM (inactive); in the experiment with M14 it was 60.5 µM (inactive); with SK-MEL-5, > 100 µM (inactive); in the experiment with OVCAR-4, > 100 µM (inactive). Besides, the GI50 with SF-295 was 32.1 µM (inactive); in the experiment on NCI/ADR-RES, > 100 µM (inactive); in the experiment with HOP-62, > 100 µM (inactive); in the experiment on 786-0, > 100 µM (inactive); in the experiment on HCT-15, over 100 µM; with SK-MEL-28, 38.5 µM (inactive). In addition, the GI50 in the experiment with SNB-75 was 71.8 µM (inactive); in the experiment with HL-60 it was > 100 µM (inactive); in the experiment with HOP-92, 33.2 µM (inactive); in the experiment on OVCAR-3, > 100 µM (inactive); in the experiment with UACC-257, > 100 µM (inactive); with SF-539, 24.3 µM (inactive). In addition, the GI50 is > 100 µM (inactive) in the experiment on K562 and 23.4 µM (inactive) in the experiment with Malme-3M.

As to `CC(=O)OCC12C(OC(C)=O)C[C@@H](C)C3(CC(c4ccoc4)OC3=O)C1CCC(OC(C)=O)C21CO1` (stereo not given in full), the GI50 with HT-29, in the experiment on SK-MEL-2, with ACHN, with M14, in the experiment on SK-MEL-5 and in the experiment on OVCAR-4 was > 100 µM (inactive) throughout. The GI50 in the experiment with SF-295 is > 100 µM (inactive); with NCI/ADR-RES, > 100 µM (inactive); with HOP-62, > 100 µM (inactive); in the experiment with 786-0, > 100 µM (inactive); with HCT-15 it was over 100 µM; with SK-MEL-28 it was > 100 µM (inactive). The GI50 in the experiment on SNB-75, in the experiment with HL-60, in the experiment on HOP-92, in the experiment with OVCAR-3, with UACC-257 and in the experiment with SF-539 was > 100 µM (inactive) in each case. Further, the GI50 in the experiment with K562 and with Malme-3M was > 100 µM (inactive) in each case.

Take `CCc1ccc2c(c1)N(CC(C)CN(C)C)c1ccccc1S2` (stereo not given) [ETYMEMAZINE HYDROCHLORIDE]: the GI50 with HT-29 is 3.12 µM (inactive); in the experiment with SK-MEL-2 it was 5.08 µM (inactive); in the experiment with ACHN, 5.21 µM (inactive); with M14 it was 2.12 µM (inactive); in the experiment on SK-MEL-5 it was 3.78 µM (inactive); with OVCAR-4, 5.16 µM (inactive). Also, the GI50 with SF-295 was 9.64 µM (inactive); in the experiment on NCI/ADR-RES, 5.22 µM (inactive); with HOP-62, 6.38 µM (inactive); in the experiment with 786-0, 4.7 µM (inactive); with HCT-15, 6.21 µM; in the experiment on SK-MEL-28 it was 2.21 µM (inactive). Also, the GI50 in the experiment with SNB-75 was 3 µM (inactive); in the experiment with HL-60, 2.65 µM (inactive); in the experiment on HOP-92, 4.66 µM (inactive); with OVCAR-3 it was 4.88 µM (inactive); in the experiment with UACC-257, 2.74 µM (inactive); in the experiment on SF-539 it was 10.2 µM (inactive). For the same compound, the values for the concentration for 50% growth inhibition (GI50) in the experiment on K562 and with Malme-3M were 0.37 µM (active) and 4.11 µM (inactive), respectively.
